# Tests used:
# Format in all cases: physicochemical
# [1] = Distribution ratio of phosphotungstic acid to organic solvent and water (saturated aqueous solution of phosphotungstic acid); details: ICP
# Procedure: (§1) The resultant was stirred and allowed to stand, followed by phase separation. Samples were obtained from each phase in an amount of 1 ml and the samples were dried using a centrifuge. The dried specimens were analyzed by the ICP mass spectrometer. Water was dissolved in each phase in order to identify an aqueous phase.
# [2] = Distribution ratio of phosphotungstic acid to organic solvent and water (powdery phosphotungstic acid); details: ICP
# Procedure: as §1, with “inductively coupled plasma (ICP)” for “ICP”
# [3] = Assay of distribution ratio of glucose (saturated aqueous solution of phosphotungstic acid)
# Procedure: n-Butyl ethyl ether (26.67 ml) was added to a saturated aqueous solution containing 30 g of phosphotungstic acid. The resultant was stirred and allowed to stand, followed by phase separation. Glucose was continuously added until glucose was not able to dissolve in each phase. Solubility of glucose in n-butyl ethyl ether was determined based on the amount of glucose dissolved.
# [4] = Heating reaction test with saturated aqueous solution of phosphotungstic acid: distribution of phosphotungstic acid; details: saturated aqueous solution of phosphotungstic acid triacontahydrate 30 g + glucose 5 g, heated
# Procedure: (§2) A saturated aqueous solution containing 30 g of phosphotungstic acid triacontahydrate was mixed with 5 g of glucose, the mixture was heated, and various types of the selected organic solvents were then added thereto in amounts 3 times greater than the minimal amount of the solvent necessary to dissolve phosphotungstic acid (by volume). The resultant was stirred and allowed to stand, followed by phase separation. Samples were dried using a centrifuge, the phosphotungstic acid content in the dried specimens was analyzed by the ICP mass spectrometer, and glucose content was assayed via liquid chromatography.
# [5] = Heating reaction test with phosphotungstic acid triacontahydrate: distribution of phosphotungstic acid; details: phosphotungstic acid triacontahydrate 30 g + glucose 5 g, heated
# Procedure: (§3) Phosphotungstic acid triacontahydrate (30 g) was mixed with glucose (5 g), the resultant was heated, and various types of the selected organic solvents were added in amounts 3 times greater than the minimal amount of the solvent necessary to dissolve phosphotungstic acid (by volume). The resultant was stirred and allowed to stand, followed by phase separation. The samples were dried using a centrifuge, the phosphotungstic acid content in the dried specimens was analyzed by the ICP mass spectrometer, and glucose content was assayed via liquid chromatography.
# [6] = Heating reaction test with saturated aqueous solution of phosphotungstic acid: distribution of glucose; details: saturated aqueous solution of phosphotungstic acid triacontahydrate 30 g + glucose 5 g, heated
# Procedure: as §2
# [7] = Assay of solubility of glucose in organic solvent; details: in the listed organic solvent, room temperature
# Procedure: Glucose was added to an organic solvent at room temperature. Glucose was continuously added until it was not able to dissolve therein, and solubility was determined based on the entire amount of glucose added.
# [8] = Heating reaction test with phosphotungstic acid triacontahydrate: distribution of glucose; details: phosphotungstic acid triacontahydrate 30 g + glucose 5 g, heated
# Procedure: as §3
# [9] = Assay of solubility of phosphotungstic acid in organic solvent; details: in the listed organic solvent, room temperature
# Procedure: Phosphotungstic acid was added to an organic solvent at room temperature. Phosphotungstic acid was continuously added until it was not able to dissolve therein, and solubility was determined based on the entire amount of phosphotungstic acid added.
Distribution ratio of phosphotungstic acid (based on tungsten) (%) ([1]; First phase (from top)),Distribution ratio of phosphotungstic acid (based on tungsten) (%) ([1]; Second phase (from top)),Distribution ratio of phosphotungstic acid (based on tungsten) (%) ([1]; Third phase (from top)),Distribution ratio of phosphotungstic acid (based on tungsten) (%) ([2]; First phase (from top)),Distribution ratio of phosphotungstic acid (based on tungsten) (%) ([2]; Second phase (from top)),Distribution ratio of phosphotungstic acid (based on tungsten) (%) ([4]; First phase),Distribution ratio of phosphotungstic acid (based on tungsten) (%) ([4]; Second phase (aqueous phase)),Distribution ratio of phosphotungstic acid (based on tungsten) (%) ([5]; First phase),Distribution ratio of phosphotungstic acid (based on tungsten) (%) ([5]; Second phase (aqueous phase)),Distribution ratio of glucose (%) ([6]; Second phase (aqueous phase)),Solubility of glucose (wt %) [7],Distribution ratio of glucose (%) ([8]; Second phase (aqueous phase)),Solubility of phosphotungstic acid (wt %) [9],Distribution ratio of glucose (%) ([6]; First phase),SMILES,Distribution ratio of phosphotungstic acid (based on tungsten) (%) ([2]; Third phase (from top)),Distribution ratio of phosphotungstic acid (based on tungsten) (%) ([4]; Third phase),Distribution ratio of phosphotungstic acid (based on tungsten) (%) ([5]; Third phase),Distribution ratio of glucose (%) ([6]; Third phase),Distribution ratio of glucose (%) ([8]; Third phase),further results
0.1%,5.1%,94.8%,0.1%,2.9%,0.1%,8.9%,0.1%,10.2%,100%,<0.03 wt %,100%,300 wt %,,CCCCOCC [n-Butyl ethyl ether],97.0%,91.0%,89.7%,0%,0%,"Distribution ratio of phosphotungstic acid (based on tungsten) (%) ([2]; Third phase (from top), listed as n-butyl ethyl ether): 97%; Distribution ratio of glucose (%) ([3]; First phase): 0.1%; Distribution ratio of glucose (%) ([3]; Second phase (aqueous)): 97.7%; Distribution ratio of glucose (%) ([3]; Third phase): 2.2%"
1.0%,97.7%,1.3%,97.9%,2.1%,98.1%,1.9%,98.3%,1.7%,99.2%,<0.043 wt %,100%,200 wt %,0.8%,CCCCCCC(C)O (stereo not shown) [2-Octanol],,,,,,
1.3%,97.3%,1.4%,97.7%,2.3%,96.8%,3.2%,96.9%,3.1%,100%,<0.045 wt %,100%,200 wt %,0%,CCCCCCCCO [1-Octanol],,,,,,

SMILES,Distribution ratio of phosphotungstic acid (based on tungsten) (%) ([1]; First phase (from top)),Distribution ratio of phosphotungstic acid (based on tungsten) (%) ([1]; Second phase (from top)),Distribution ratio of phosphotungstic acid (based on tungsten) (%) ([1]; Third phase (from top)),Distribution ratio of phosphotungstic acid (based on tungsten) (%) ([2]; First phase (from top)),Distribution ratio of phosphotungstic acid (based on tungsten) (%) ([2]; Second phase (from top)),Distribution ratio of phosphotungstic acid (based on tungsten) (%) ([4]; First phase),Distribution ratio of phosphotungstic acid (based on tungsten) (%) ([4]; Second phase (aqueous phase)),Distribution ratio of phosphotungstic acid (based on tungsten) (%) ([5]; First phase),Distribution ratio of phosphotungstic acid (based on tungsten) (%) ([5]; Second phase (aqueous phase)),Distribution ratio of glucose (%) ([6]; Second phase (aqueous phase)),Solubility of glucose (wt %) [7],Distribution ratio of glucose (%) ([8]; Second phase (aqueous phase)),Solubility of phosphotungstic acid (wt %) [9],Distribution ratio of glucose (%) ([6]; First phase),Distribution ratio of phosphotungstic acid (based on tungsten) (%) ([2]; Third phase (from top)),Distribution ratio of phosphotungstic acid (based on tungsten) (%) ([4]; Third phase),Distribution ratio of phosphotungstic acid (based on tungsten) (%) ([5]; Third phase),Distribution ratio of glucose (%) ([6]; Third phase),Distribution ratio of glucose (%) ([8]; Third phase),further results
CCOCC [Diethyl ether],0.01%,1.5%,98.5%,0.01%,99.4%,0.04%,1.6%,0.03%,1.7%,100%,<0.025 wt %,100%,>229.3 wt %,0%,0.6%,98.3%,98.3%,0%,0%,Distribution ratio of glucose (%) ([8]; First phase): 0%

# From US20100324282A1, “METHOD FOR SEPARATING HETEROPOLYACID” (TOYOTA JIDOSHA KABUSHIKI KAISHA, priority 2009, published 2010)
